According to US5019394A, “Liposome composition and its production” (Takeda Chemical Industries, Ltd., priority 1987, dated 1991):
Counter-ions that a name gives are not always drawn.

Test: observed phase transition temperature of phospholipids
Assay type: physicochemical
Details: phospholipid

Row | Molecule | observed phase transition temperature
1 | CCCCCCCCCCCCCC(=O)OCC(COP(=O)(O)OCCN)OC(=O)CCCCCCCCCCCCC (centres unmarked) [DMPE, dimyristoylphosphatidyl ethanolamine] | 50 °C
2 | CCCCCCCCCCCCCCCC(=O)OCC(COP(=O)(O)OCCN)OC(=O)CCCCCCCCCCCCCCC (centres unmarked) [DPPE, dipalmitoylphosphatidyl ethanolamine] | 60 °C
3 | CCCCCCCCCCCCCCCC(=O)OC[C@H](COP(=O)([O-])OCC[N+](C)(C)C)OC(=O)CCCCCCCCCCCCCCC [DPPC, dipalmitoylphosphatidyl choline] | 41.4 °C
4 | CCCCCCCCCCCCCCCCCC(=O)OCC(COP(=O)([O-])OCC[N+](C)(C)C)OC(=O)CCCCCCCCCCCCCCCCC (centres unmarked) [DSPC, distearoylphosphatidyl choline] | 54.9 °C
5 | CCCCCCCCCCCCCCCC(=O)OCC(COP(=O)(O)OCC(N)C(=O)O)OC(=O)CCCCCCCCCCCCCCC (centres unmarked) [DPPS, dipalmitoylphosphatidyl serine] | 51 °C
6 | dipalmitoyl sphingomyelin [DPSM] | 41 °C
7 | CCCCCCCCCCCCCC(=O)OC[C@H](COP(=O)([O-])OCC[N+](C)(C)C)OC(=O)CCCCCCCCCCCCC [DMPC, dimyristoylphosphatidyl choline] | 23.9 °C
8 | CCCCCCCCCCCCCCCCCC(=O)OCC(COP(=O)(O)OCC(N)C(=O)O)OC(=O)CCCCCCCCCCCCCCCCC (centres unmarked) [DSPS, distearoylphosphatidyl serine] | ≥ 50 °C
9 | CCCCCCCCCCCCCC(=O)OCC(COP(=O)(O)OCC(O)CO)OC(=O)CCCCCCCCCCCCC (centres unmarked) [DMPG, dimyristoylphosphatidyl glycrine] | 23 °C
10 | CCCCCCCCCCCCCCCC(=O)OCC(COP(=O)(O)OCC(O)CO)OC(=O)CCCCCCCCCCCCCCC (centres unmarked) [DPPG, dipalmitoylphosphatidyl glycerine] | 41 °C
11 | CCCCCCCCCCCCCC(=O)OCC(COP(=O)(O)OCC(N)C(=O)O)OC(=O)CCCCCCCCCCCCC (centres unmarked) [DMPS, dimyristoylphosphatidyl serine] | 38 °C

Second part, the molecule after the results:

Row | observed phase transition temperature | Molecule
12 | 27.2 °C | CCCCCCCCCCCCCCCC(=O)OCC(COP(=O)([O-])OCC[N+](C)(C)C)OC(=O)CCCCCCCCCCCCC (centres unmarked) [PMPC, palmitoylmyristoylphosphatidyl choline]
13 | 35.3 °C | CCCCCCCCCCCCCCCC(=O)OC(COC(=O)CCCCCCCCCCCCC)COP(=O)([O-])OCC[N+](C)(C)C (centres unmarked) [MPPC, myristoylpalmitoylphosphatidyl choline]
14 | above 60 °C | CCCCCCCCCCCCCCCCCC(=O)OCC(COP(=O)(O)OCCN)OC(=O)CCCCCCCCCCCCCCCCC (centres unmarked) [DSPE, distearoylphosphatidyl ethanolamine]
15 | 44.0 °C | CCCCCCCCCCCCCCCCCC(=O)OCC(COP(=O)([O-])OCC[N+](C)(C)C)OC(=O)CCCCCCCCCCCCCCC (centres unmarked) [SPPC, stearoylpalmitoylphosphatidyl choline]
16 | 47.4 °C | CCCCCCCCCCCCCCCCCC(=O)OC(COC(=O)CCCCCCCCCCCCCCC)COP(=O)([O-])OCC[N+](C)(C)C (centres unmarked) [PSPC, palmitoylstearoylphosphatidyl choline]
17 | 57 °C | distearoyl sphingomyelin [DSSM]
18 | 55 °C | CCCCCCCCCCCCCCCCCC(=O)OCC(COP(=O)(O)OCC(O)CO)OC(=O)CCCCCCCCCCCCCCCCC (centres unmarked) [DSPG, distearoylphosphatidyl glycerine]

Test: Krafft point of anionic surfactants
Assay type: physicochemical
Details: not given

Row | Molecule | Krafft point [°C]
19 | sodium octadecyl disulfate ester | 45
20 | CCCCCCCCCCCCCCCCCS(=O)(=O)[O-].[Na+] [sodium heptadecanesulfonate] | 62
21 | CCCCCCCCCCCCOS(=O)(=O)[O-].[Na+] [sodium dodecyl sulfate, reference compound] | 9
22 | CCCCCCCCCCCCCCCCCCOCCOS(=O)(=O)O [sodium octadecylether sulfate ester] | 46
23 | CCCCCCCCCCCCCCCCCCc1ccc(S(=O)(=O)O)cc1 [sodium octadecylbenzenesulfonate] | 56
24 | sodium hexadecyl disulfate ester | 39
25 | CCCCCCCCCCCCCCCCOS(=O)(=O)[O-].[Na+] [sodium hexadecyl sulfate] | 43
26 | CCCCCCCCCCCCCCCCCCOCCOCCOS(=O)(=O)O [sodium octadecyl diether sulfate ester] | 40
27 | CCCCCCCCCCCCCCCCCCOS(=O)(=O)[O-].[Na+] [sodium octadecyl sulfate] | 58
28 | CCCCCCCCCCCCCCCS(=O)(=O)[O-].[Na+] [sodium pentadecanesulfonate] | 48
29 | CCCCCCCCCCCCCCCCCC(=O)NCCS(=O)(=O)O.[Na] [sodium stearoyltaurine] | 58
30 | CCCCCCCCCCCCCCCC(=O)NCCOS(=O)(=O)O [sodium palmitoyl ethanolamide sulfate ester] | 42
31 | CCCCCCCCCCCCCCc1ccc(S(=O)(=O)O)cc1 [sodium tetradecylbenzenesulfonate] | 43
32 | CCCCCCCCCCCCCCCCS(=O)(=O)[O-].[Na+] [sodium hexadecanesulfonate] | 57
33 | CCCCCCCCCCCCS(=O)(=O)[O-].[Na+] [sodium dodecanesulfonate] | 38
34 | CCCCCCCCCCCCCCCC(=O)NCCS(=O)(=O)O.[Na] [sodium palmitoyltaurine] | 43
35 | CCCCCCCCCCCCCCCC(=O)NCCCOS(=O)(=O)O [sodium palmitoyl propanolamide sulfate ester] | 47
36 | CCCCCCCCCCCCCCCC(=O)N(C)CCS(=O)(=O)O.[Na] [sodium palmitoylmethyltaurine] | 43
37 | CCCCCCCCCCCCCCCCc1ccc(S(=O)(=O)O)cc1 [sodium hexadecylbenzenesulfonate] | 46
38 | CCCCCCCCCCCCCCCCCC(=O)NCCCOS(=O)(=O)O [sodium stearoyl propanolamide sulfate ester] | 57
39 | CCCCCCCCCCCCCCCCCC(=O)NCCOS(=O)(=O)O [sodium stearoyl ethanolamide sulfate ester] | 53
40 | CCCCCCCCCCCCCCCCCC(=O)N(C)CCS(=O)(=O)O.[Na] | 58
41 | CCCCCCCCCCCCc1ccc(S(=O)(=O)O)cc1 [sodium dodecylbenzenesulfonate] | 40
42 | CCCCCCCCCCCCCCCCCCS(=O)(=O)[O-].[Na+] [sodium octadecanesulfonate] | 70
43 | CCCCCCCCCCCCCCS(=O)(=O)[O-].[Na+] [sodium tetradecanesulfonate] | 48

Test: dissolution of SMT in aqueous 6-CF solution
Assay type: physicochemical
Details: 30 mg in 10 ml, pH 7, room temperature
Method: 270 mg of DPPC and 30 mg of DSPC were dissolved in 70 ml of 1:1 mixture of chloroform and isopropylether in a 1--1 beaker. To 10 ml of an aqueous solution of 6-carboxyfluorescein (6-CF), pH 7, which had been prepared beforehand so that the osmotic pressure might be the same as that of the physiological saline, 30 mg of sodium stearoylmethyltaurine (SMT) was added at room temperature. […] Then this solution was added to the solution of the phospholipid in an organic solvent, and emulsified by a probe type sonicator (Ohtake, Japan), to give a w/o type emulsion. Sonication at 50 watt for 30 seconds was repeated 10 times. This emulsion was charged to a rotary evaporator to evaporate off the organic solvent at 60° C. under reduced pressure, to give REV. The pressure in the evaporator was reduced greatly in the initial stage, but then adjusted in the course of evaporation of the organic solvent to prevent bumping. A small amount of the organic solvent remained in REV was further evaporated off by blowing nitrogen gas. […] The entrapment ratio of 6CF in this liposome composition was 33.2% as determined by quantification of 6-Cf entrapped in liposome (Note 1).

Row | Molecule | solubility of SMT in aqueous 6-CF solution
44 | CCCCCCCCCCCCCCCCCC(=O)N(C)CCS(=O)(=O)O.[Na] | almost insoluble
